Measurements from ChEMBL document CHEMBL1201862, “PubChem BioAssay data set” (2004).
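Five concentrations, 48 hours, 96-well plates. GI50: concentration for 50% inhibition of growth.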 The source made the active and inactive calls. Cut-off read from the data, not from the text of the source: active = GI50 up to about 1.1 µM and inactive = higher.

Assays:
Experiment in all cases: DTP human tumour cell line panel, 48 h
SK-MEL-2 = tested on: SK-MEL-2
IGROV-1 = tested on: IGROV-1
OVCAR-4 = tested on: OVCAR-4
NCI-H226 = tested on: NCI-H226
UACC-257 = tested on: UACC-257
Hs-578T = tested on: Hs-578T
HCT-116 = tested on: HCT-116
MOLT-4 = tested on: MOLT-4
M14 = tested on: M14
A498 = tested on: A498
Malme-3M = tested on: Malme-3M
LOX IMVI = tested on: LOX IMVI
SK-MEL-5 = tested on: SK-MEL-5
HOP-62 = tested on: HOP-62
UO-31 = tested on: UO-31
EKVX = tested on: EKVX
MDA-MB-435 = tested on: MDA-MB-435
RPMI-8226 = tested on: RPMI-8226
TK-10 = tested on: TK-10
CCRF-CEM = tested on: CCRF-CEM

## C(=N\Nc1nnc2c(n1)[nH]c1ccccc12)/c1cccnc1
SK-MEL-2
  GI50: > 100 µM (inactive)
IGROV-1
  GI50: > 100 µM (inactive)
OVCAR-4
  GI50: > 100 µM (inactive)
NCI-H226
  GI50: > 100 µM (inactive)
UACC-257
  GI50: > 100 µM (inactive)
Hs-578T
  GI50: > 100 µM (inactive)
HCT-116
  GI50: > 100 µM (inactive)
MOLT-4
  GI50: > 100 µM (inactive)
M14
  GI50: 5.07 µM (inactive)
A498
  GI50: > 100 µM (inactive)
Malme-3M
  GI50: 57.8 µM (inactive)
LOX IMVI
  GI50: > 100 µM (inactive)
SK-MEL-5
  GI50: > 100 µM (inactive)
HOP-62
  GI50: > 100 µM (inactive)
UO-31
  GI50: > 100 µM (inactive)
EKVX
  GI50: > 100 µM (inactive)
MDA-MB-435
  GI50: > 100 µM (inactive)
RPMI-8226
  GI50: > 100 µM (inactive)
TK-10
  GI50: > 100 µM (inactive)

## COP(=O)(/C=C/c1cc(C(=O)OCc2ccccc2)n(S(=O)(=O)c2ccccc2)c1)OC
SK-MEL-2
  GI50: > 100 µM (inactive)
IGROV-1
  GI50: > 100 µM (inactive)
OVCAR-4
  GI50: > 100 µM (inactive)
UACC-257
  GI50: > 100 µM (inactive)
Hs-578T
  GI50: > 100 µM (inactive)
HCT-116
  GI50: > 100 µM (inactive)
MOLT-4
  GI50: > 100 µM (inactive)
M14
  GI50: > 100 µM (inactive)
A498
  GI50: > 100 µM (inactive)
CCRF-CEM
  GI50: > 100 µM (inactive)
Malme-3M
  GI50: > 100 µM (inactive)
LOX IMVI
  GI50: > 100 µM (inactive)
SK-MEL-5
  GI50: > 100 µM (inactive)
HOP-62
  GI50: > 100 µM (inactive)
UO-31
  GI50: > 100 µM (inactive)
EKVX
  GI50: > 100 µM (inactive)
MDA-MB-435
  GI50: > 100 µM (inactive)
TK-10
  GI50: > 100 µM (inactive)

## CCOC(=O)Nc1cc2c(c(N)n1)N=C(c1ccc3ccccc3c1)CN2
SK-MEL-2
  GI50: 0.373 µM (active)
IGROV-1
  GI50: 0.644 µM (active)
OVCAR-4
  GI50: 1.44 µM (inactive)
NCI-H226
  GI50: 0.34 µM (active)
UACC-257
  GI50: 0.815 µM (active)
Hs-578T
  GI50: 0.0302 µM (active)
HCT-116
  GI50: 0.0225 µM (active)
MOLT-4
  GI50: 0.0226 µM (active)
M14
  GI50: 0.617 µM (active)
A498
  GI50: 0.861 µM (active)
CCRF-CEM
  GI50: 0.015 µM (active)
Malme-3M
  GI50: 0.292 µM (active)
LOX IMVI
  GI50: 0.0559 µM (active)
SK-MEL-5
  GI50: < 0.0164 µM (active)
HOP-62
  GI50: 0.0564 µM (active)
UO-31
  GI50: 0.301 µM (active)
EKVX
  GI50: 2.51 µM (inactive)
MDA-MB-435
  GI50: < 0.01 µM (active)
TK-10
  GI50: 4.36 µM (inactive)

## COC(=O)CCCc1c(-c2[nH]c3ccccc3c2CCCC(=O)OC)[nH]c2ccccc12
SK-MEL-2
  GI50: > 100 µM (inactive)
IGROV-1
  GI50: > 100 µM (inactive)
NCI-H226
  GI50: > 100 µM (inactive)
UACC-257
  GI50: > 100 µM (inactive)
Hs-578T
  GI50: > 100 µM (inactive)
HCT-116
  GI50: > 100 µM (inactive)
MOLT-4
  GI50: > 100 µM (inactive)
M14
  GI50: > 100 µM (inactive)
A498
  GI50: > 100 µM (inactive)
CCRF-CEM
  GI50: > 100 µM (inactive)
Malme-3M
  GI50: 39.3 µM (inactive)
LOX IMVI
  GI50: > 100 µM (inactive)
SK-MEL-5
  GI50: > 100 µM (inactive)
HOP-62
  GI50: > 100 µM (inactive)
UO-31
  GI50: > 100 µM (inactive)
EKVX
  GI50: > 100 µM (inactive)
MDA-MB-435
  GI50: > 100 µM (inactive)
RPMI-8226
  GI50: > 100 µM (inactive)
TK-10
  GI50: > 100 µM (inactive)

## Cc1ccc(O)c(-c2cc(-c3cccc(Br)c3)c(C#N)c(N)n2)c1
SK-MEL-2
  GI50: 20.7 µM (inactive)
IGROV-1
  GI50: 11.7 µM (inactive)
OVCAR-4
  GI50: < 0.01 µM (active)
NCI-H226
  GI50: 17.5 µM (inactive)
UACC-257
  GI50: 20.8 µM (inactive)
Hs-578T
  GI50: 25.5 µM (inactive)
HCT-116
  GI50: 20 µM (inactive)
MOLT-4
  GI50: 20.1 µM (inactive)
M14
  GI50: 31.9 µM (inactive)
Malme-3M
  GI50: 23.5 µM (inactive)
LOX IMVI
  GI50: 16.3 µM (inactive)
SK-MEL-5
  GI50: 19.2 µM (inactive)
HOP-62
  GI50: 34.6 µM (inactive)
UO-31
  GI50: 20.4 µM (inactive)
EKVX
  GI50: 14.8 µM (inactive)
MDA-MB-435
  GI50: 16.3 µM (inactive)
RPMI-8226
  GI50: 11.5 µM (inactive)
TK-10
  GI50: 18.2 µM (inactive)

## COc1ccc2c(c1)C(=O)/C(=C/c1ccccc1)C2
SK-MEL-2
  GI50: 74.1 µM (inactive)
IGROV-1
  GI50: > 100 µM (inactive)
OVCAR-4
  GI50: 55.7 µM (inactive)
NCI-H226
  GI50: 25 µM (inactive)
Hs-578T
  GI50: > 100 µM (inactive)
MOLT-4
  GI50: 16.3 µM (inactive)
M14
  GI50: 27 µM (inactive)
A498
  GI50: 44 µM (inactive)
CCRF-CEM
  GI50: 11.3 µM (inactive)
Malme-3M
  GI50: > 100 µM (inactive)
SK-MEL-5
  GI50: 29.4 µM (inactive)
HOP-62
  GI50: 29.6 µM (inactive)
UO-31
  GI50: 49.7 µM (inactive)
MDA-MB-435
  GI50: 63.2 µM (inactive)
RPMI-8226
  GI50: 45.7 µM (inactive)

## CC(C)C(C/C=C1/CC(CO)(COC(=O)c2ccccc2)OC1=O)C(C)C (configuration not stated)
SK-MEL-2
  GI50: > 100 µM (inactive)
IGROV-1
  GI50: 20.2 µM (inactive)
OVCAR-4
  GI50: 15 µM (inactive)
NCI-H226
  GI50: 16 µM (inactive)
UACC-257
  GI50: 24.8 µM (inactive)
Hs-578T
  GI50: 7.43 µM (inactive)
HCT-116
  GI50: 16 µM (inactive)
MOLT-4
  GI50: 11.8 µM (inactive)
M14
  GI50: 15.7 µM (inactive)
A498
  GI50: 18.2 µM (inactive)
CCRF-CEM
  GI50: 16.8 µM (inactive)
Malme-3M
  GI50: 12 µM (inactive)
LOX IMVI
  GI50: 23.8 µM (inactive)
SK-MEL-5
  GI50: 8.45 µM (inactive)
HOP-62
  GI50: 9.93 µM (inactive)
UO-31
  GI50: 16.3 µM (inactive)
EKVX
  GI50: 19.2 µM (inactive)
MDA-MB-435
  GI50: 26 µM (inactive)
TK-10
  GI50: 16.5 µM (inactive)
